Patent publication US20240254164A1, “PURIFICATION OF SPECIFIC TRIPEPTIDE BY ACIDIFICATION” (DSM IP Assets B.V., priority 2021, published 2024)
Non-standard residues stand in square brackets, D forms with d. Residues, ends and D or L forms follow the SMILES beside them. Met(O2) = CS(=O)(=O)CC[C@H](N)C(=O)O

Tests used:
Type in all cases: physicochemical
[1] = Precipitation of different acidified tripeptides from aqueous solution heated to reflux and cooled to room temperature; settings: 0.5 mol/L aqueous solution, reflux, cooled to room temperature
Excerpt: Aqueous solutions of different tripeptides acidified to the pH as given in table 2 were heated to reflux temperature. The clear solutions (0.5 mol/L) have been cooled to room temperature.
The fine particles of example 3 formed at the bottom of the vessel have been collected by a filtration over a glass frit filter.

[2] = Precipitation of the tripeptide from aqueous LiOH solution on acidification with HCl and cooling to 4° C.; settings: 54 mg in 0.2 ml 0.1 M aqueous LiOH, pH lowered from 9 with 2M HCl, cooled to 4° C.
Protocol: 54 mg Ac-Met(O2)-Val-Val-OH have been dissolved in 0.2 ml 0.1 M aqueous LiOH. A clear solution is formed. The pH was lowered from 9 to the pH as indicated in table 1 by adding 2M HCl and cooled to a temperature of 4° C.
In example 1, a precipitation the tripeptide in fine particles at the bottom of the vessel was observed is formed which was separated by filtration over a glass frit filter.

[3] = Susceptibility against oxidation by atmospheric oxygen; settings: compared to the corresponding tripeptide Ac-Met-Val-Val-OH
[4] = Precipitation of acidified tripeptide dissolved in water at reflux and cooled to 4° C. (Example 2); settings: pH 1.9; 67.3 g in 500 ml water at reflux, cooled to 4° C. within 2.5 hours, kept 30 minutes
Protocol: 67.3 g acidified Ac-Met(O2)-Val-Val-OH was dissolved in 500 ml water (pH 1.9 of solution) at reflux. The solution was cooled to 4° C. within 2.5 hours and kept at 4° C. during 30 minutes.

## CC(=O)N[C@@H](CCC(N)=O)C(=O)N1CCC[C@H]1C(=O)N[C@@H](C)C(=O)O [Ac-Gln-Pro-Ala-OH] (Ac-Gln-Pro-Ala-OH)
[1]; pH 1.5
  Observation after cooling: No particles formed

## CC(=O)N[C@@H](CCS(C)(=O)=O)C(=O)N[C@H](C(=O)N[C@H](C(=O)O)C(C)C)C(C)C [Ac-Met(O2)-Val-Val-OH] (Ac-[Met(O2)]-Val-Val-OH)
[2]; pH 2
  Observation after cooling: Fine particles formed
[2]; pH 3
  Observation after cooling: Opaque solution. No particles formed
[3]
  Susceptibility against oxidation by atmospheric oxygen: significant lower susceptibility against oxidation
[1]; pH 2
  Observation after cooling: Fine particles formed
[4]
  Observation after cooling: fine particles formed

## CC(=O)N[C@@H](CO)C(=O)N1CCC[C@H]1C(=O)N[C@@H](C)C(=O)O [Ac-Ser-Pro-Ala-OH] (Ac-Ser-Pro-Ala-OH)
[1]; pH 0.9
  Observation after cooling: No particles formed
